From patent US12606569B2, “Alkaloid-containing compositions and uses thereof” (priority 2017, dated 2026)
Where two headings read alike, the source gives them in different places.

How the values were obtained:
[1] = type: physicochemical; conditions: for chemical stability of the component in buffers / degradation of the component at pH 2 and 10: 1% w/w purified loline extract, 0.2M buffers; for chemical stability of the component in buffers: except pH 2 and 10; for degradation of the component at pH 2 and 10: starting at 24 h
Description: 1% w/w solutions of purified loline extract at various pH and 0.2M buffers were used in this investigation. The solutions were maintained at 54° C. (±1° C.) and 70° C. (±1° C.) and pH remained at the target pH (±0.2 pH units). Samples were taken periodically over a 2-3 week period and analysed by GC-FID to determine NFL strength.

[2] = type: physicochemical

## CC(=O)N(C)C1C2CN3CCC(O2)C13 (stereo not shown) [NAL, N-acetylloline]
[1]
  chemical stability of the component in buffers: chemically stable
  degradation of the component at pH 2 and 10: small degradation

## CC(=O)NC1C2CN3CCC(O2)C13 (stereo not shown) [NANL, N-acetylnorloline]
[1]
  chemical stability of the component in buffers: chemically stable
  degradation of the component at pH 2 and 10: small degradation

## CN(C=O)C1C2CN3CCC(O2)[C@H]13 (stereo partly shown) [NFL, N-formylloline]
[1]; 70° C.
  stability on increasing or decreasing pH from pH 4: significant decrease in stability
[1]; 70° C., pH 2.6
  time after which the stability of NFL plateaus: approximately 100 hours
[1]; 70° C., pH 4, acetic acid derived buffer, over 170 hours
  stability (degradation of NFL to loline): greatest stability
[1]; 70° C., pH 4, citric acid buffer
  stability (degradation of NFL to loline): lower stability
[2]; 50° C. compared with 70° C.
  overall degradation rates: reduced
[2]; both 50° C. and 70° C.
  conversion of NFL to loline, citric acid based system versus acetic acid derived buffer: higher degradation
